Laboratory results published in ChEMBL document CHEMBL1201862, “PubChem BioAssay data set” (2004).
Calls of active or inactive are those of the source.

Key:
[1] = A Cell Based Secondary Assay To Explore Cytotoxicity of Compounds that Sensitize Mycobacterium Tuberculosis to Beta-Lactam Antibiotics.; type: functional
[2] = biological target: T1, Heat shock factor protein 1 (Mus musculus, UniProt P38532); assay: decrease of HSF1-responsive luciferase luminescence – cell-based, NIH3T3, dose retest, confirmation (AID 2382); type: functional;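 further: NIH3T3 fibroblasts with HSF1-driven luciferase reporter stressed by proteasome inhibitor MG132; luminescence from HSF1-driven luciferase expression after 8 hours of MG132 stress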
T1 sequence (P38532 whole entry): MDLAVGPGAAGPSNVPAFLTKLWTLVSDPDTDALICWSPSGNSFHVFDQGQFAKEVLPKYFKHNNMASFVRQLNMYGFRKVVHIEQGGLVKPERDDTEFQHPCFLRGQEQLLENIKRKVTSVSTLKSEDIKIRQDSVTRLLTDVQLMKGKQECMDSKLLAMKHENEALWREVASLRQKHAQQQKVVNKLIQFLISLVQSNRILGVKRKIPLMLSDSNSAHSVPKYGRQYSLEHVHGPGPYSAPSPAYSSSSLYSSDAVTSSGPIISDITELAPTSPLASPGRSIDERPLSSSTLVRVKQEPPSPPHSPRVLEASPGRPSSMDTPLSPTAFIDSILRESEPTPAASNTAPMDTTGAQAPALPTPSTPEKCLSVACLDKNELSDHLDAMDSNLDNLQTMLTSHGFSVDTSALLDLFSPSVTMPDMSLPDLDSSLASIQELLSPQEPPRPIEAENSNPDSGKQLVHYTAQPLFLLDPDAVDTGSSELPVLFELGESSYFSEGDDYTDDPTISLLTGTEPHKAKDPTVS

[3] = biological target: T2, Microphthalmia-associated transcription factor (Homo sapiens, UniProt O75030); assay: reducers of TRPM1 reporter luminescence, concentration series – cell-based, SK-MEL-5, cherry-picked, set 3, MITF inhibitor project, dose response (AID 493073); type: functional;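 further: SK-MEL-5 melanoma cells with luciferase driven by the MITF target TRPM1 promoter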
T2 sequence (O75030 whole entry): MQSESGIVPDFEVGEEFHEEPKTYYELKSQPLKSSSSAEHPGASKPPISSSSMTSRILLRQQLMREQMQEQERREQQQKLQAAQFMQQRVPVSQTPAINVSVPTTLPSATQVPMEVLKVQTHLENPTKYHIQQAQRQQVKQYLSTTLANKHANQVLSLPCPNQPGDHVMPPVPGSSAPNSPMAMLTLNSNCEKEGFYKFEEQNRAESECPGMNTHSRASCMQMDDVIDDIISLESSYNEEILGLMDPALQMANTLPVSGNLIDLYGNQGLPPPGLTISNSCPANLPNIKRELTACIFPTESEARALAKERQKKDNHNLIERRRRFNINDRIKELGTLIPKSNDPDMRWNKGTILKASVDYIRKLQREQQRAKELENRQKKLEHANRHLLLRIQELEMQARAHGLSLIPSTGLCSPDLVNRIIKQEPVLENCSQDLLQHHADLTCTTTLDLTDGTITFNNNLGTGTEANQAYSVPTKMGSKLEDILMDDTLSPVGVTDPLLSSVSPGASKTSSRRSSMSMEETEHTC

[4] = HEK-293T cell viability reduction – luminescence, B-cell screen hits, cytotoxicity control for BCR NF-kB inhibitor project, dose response (AID 489021); type: functional, cell-based;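 further: HEK-293T cells carrying an NF-kB luciferase reporter; cells exposed to compound for about 14 hours before viability readout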
[5] = NIH-3T3 fibroblast cytotoxicity, dose response, cytotoxicity control, cell-based, fluorescence, Alamar Blue, secondary assay (AID 2327); type: functional;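 further: NIH-3T3 mouse fibroblasts cultured with fluconazole at 8 µg/mL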
[6] = fluconazole-exposed Candida albicans growth modulators – fluorescence, retest, confirmation (AID 2467); type: functional, cell-based
[7] = Trypanosoma cruzi growth suppression in host cells – NIH3T3 host cells, beta-gal luminescence, confirmation (AID 2044); type: functional, cell-based;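 further: intracellular parasites grown in NIH/3T3 mouse fibroblasts as host cells; luminescent beta-galactosidase reporter signal from transgenic T. cruzi replicating inside host cells; inhibitors lower the luminescence signal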
[8] = viability of PTEN-deleted HCT116 cells – cell-based, HCT116 PTEN knockout, dose response (AID 1047); type: functional;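 further: HCT116 colon tumor cells with PTEN knocked out; cells exposed to compound for 60 hours before readout; potency for loss of cell viability measured by luminescence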
[9] = NIH3T3 cell viability loss – ATP luminescence, mouse fibroblasts, counter-screen, dose response (AID 2010); type: functional, cell-based;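 further: cells exposed to compound for about 90 hours before reading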
[10] = viability of HCT116 lacking mutant beta-catenin – cell-based, human colon tumor, dose response (AID 1045); type: functional;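 further: HCT116 colon tumor cells with beta catenin knocked out; cells exposed to compound for 60 hours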
[11] = biological target: T3, Short transient receptor potential channel 4 (Mus musculus, UniProt Q9QUQ5); assay: block of DAMGO-driven TRPC4 calcium entry – cell-based, HEK293 TRPC4/mu-opioid, Fluo-4 calcium, dose response (AID 434942); type: functional;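 further: potency of inhibitors blocking the TRPC4 calcium response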
T3 sequence (Q9QUQ5 whole entry): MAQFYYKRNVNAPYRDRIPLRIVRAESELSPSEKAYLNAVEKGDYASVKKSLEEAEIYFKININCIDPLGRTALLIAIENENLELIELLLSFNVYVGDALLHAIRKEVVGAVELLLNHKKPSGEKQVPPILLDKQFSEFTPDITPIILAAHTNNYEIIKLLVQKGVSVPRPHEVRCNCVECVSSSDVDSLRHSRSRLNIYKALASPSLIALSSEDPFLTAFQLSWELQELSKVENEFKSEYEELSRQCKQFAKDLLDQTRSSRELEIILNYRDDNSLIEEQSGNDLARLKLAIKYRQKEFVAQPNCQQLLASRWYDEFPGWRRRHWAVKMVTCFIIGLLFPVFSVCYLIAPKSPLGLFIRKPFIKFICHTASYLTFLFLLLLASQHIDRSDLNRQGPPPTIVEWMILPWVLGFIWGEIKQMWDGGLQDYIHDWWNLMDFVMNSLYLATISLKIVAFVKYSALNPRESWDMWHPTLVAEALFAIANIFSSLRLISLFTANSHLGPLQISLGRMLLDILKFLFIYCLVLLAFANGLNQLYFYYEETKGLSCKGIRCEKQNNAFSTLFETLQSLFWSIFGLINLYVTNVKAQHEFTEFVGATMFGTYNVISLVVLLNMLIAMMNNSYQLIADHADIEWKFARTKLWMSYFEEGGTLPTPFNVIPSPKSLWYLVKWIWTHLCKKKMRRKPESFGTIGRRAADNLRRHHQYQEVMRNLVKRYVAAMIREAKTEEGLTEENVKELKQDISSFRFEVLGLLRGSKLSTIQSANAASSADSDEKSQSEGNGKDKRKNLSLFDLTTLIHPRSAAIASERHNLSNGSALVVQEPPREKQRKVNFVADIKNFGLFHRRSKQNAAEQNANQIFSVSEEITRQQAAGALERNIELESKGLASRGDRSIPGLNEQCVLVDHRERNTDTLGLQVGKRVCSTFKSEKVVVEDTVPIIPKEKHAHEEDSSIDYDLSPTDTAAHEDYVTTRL

[12] = biological target: T1, Heat shock factor protein 1; assay: enhancement of HSF1-driven luciferase signal – cell-based, NIH3T3, luminescence, dose retest, confirmation (AID 435004); type: functional;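 further: stress induced by proteasome inhibitor MG132 added 30 min after compound; luciferase reporter driven by HSF1 response element in NIH3T3 cells; actives raise luminescence as potentiators of the MG132 stress response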
[13] = tested on: INS1; assay: INS-1E survival protection against cytokine death – cell-based, luminescence, retest, dose response (AID 449756); type: functional; conditions: Rattus norvegicus;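 further: cell death triggered by IL-1 beta plus TNF-alpha plus IFN-gamma mixture; protective hits raise ATP signal compared with cytokine alone wells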
[14] = microbe, parasite or virus in culture; type: functional; conditions: Mycobacterium tuberculosis
[15] = biological target: Glucose-6-phosphate 1-dehydrogenase (Homo sapiens, UniProt P11413); assay: inhibition of Homo sapiens G6PD, dose series – biochemical, fluorescence, selectivity assay for P. falciparum G6PD inhibitor project, dose response (AID 504792); type: functional
[16] = THP-1 cell cytotoxicity, dose response, cytotoxicity control for non-replicating M. tuberculosis project (AID 489025); type: functional
[17] = Vero E6 cell cytotoxicity, dose response, cytotoxicity control for non-replicating M. tuberculosis project, secondary assay (AID 492998); type: functional, VeroE6; conditions: Vero C1008
[18] = cells; type: functional
[19] = tested on: Streptococcus sp. 'group A'; assay: Streptococcus pyogenes SK(-)GAS viability under kanamycin – luminescence, BacTiterGlo, confirmation, counter-screen for streptokinase expression inhibitor project, dose response (AID 1900); type: functional, organism-based
[20] = biological target: T4, Streptokinase A (Streptococcus pyogenes serotype M1, UniProt P10520); assay: viability-normalized secreted streptokinase activity reduction – plasminogen activation absorbance, OD405, dose response (AID 1914); type: functional, Streptococcus pyogenes M1 GAS;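 further: secreted streptokinase activity via plasminogen activation per viability signal from cell pellet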
T4 sequence (P10520 whole entry): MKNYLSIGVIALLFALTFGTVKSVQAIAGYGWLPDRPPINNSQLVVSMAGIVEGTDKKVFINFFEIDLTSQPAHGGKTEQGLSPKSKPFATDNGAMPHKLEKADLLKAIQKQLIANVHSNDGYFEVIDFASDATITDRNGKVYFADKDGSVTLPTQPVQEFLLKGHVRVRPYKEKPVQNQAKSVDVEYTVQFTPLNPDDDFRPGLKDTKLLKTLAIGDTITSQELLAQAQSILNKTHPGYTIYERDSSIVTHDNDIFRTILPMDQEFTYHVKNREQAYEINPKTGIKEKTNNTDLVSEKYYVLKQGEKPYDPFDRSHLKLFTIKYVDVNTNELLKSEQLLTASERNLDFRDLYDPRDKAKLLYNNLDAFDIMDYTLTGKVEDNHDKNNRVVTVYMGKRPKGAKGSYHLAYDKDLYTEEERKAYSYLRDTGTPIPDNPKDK

[21] = biological target: T5, Estrogen receptor (Homo sapiens, UniProt P03372);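 further: potency for inhibiting coactivator peptide recruitment to the receptor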
T5 sequence (P03372 whole entry): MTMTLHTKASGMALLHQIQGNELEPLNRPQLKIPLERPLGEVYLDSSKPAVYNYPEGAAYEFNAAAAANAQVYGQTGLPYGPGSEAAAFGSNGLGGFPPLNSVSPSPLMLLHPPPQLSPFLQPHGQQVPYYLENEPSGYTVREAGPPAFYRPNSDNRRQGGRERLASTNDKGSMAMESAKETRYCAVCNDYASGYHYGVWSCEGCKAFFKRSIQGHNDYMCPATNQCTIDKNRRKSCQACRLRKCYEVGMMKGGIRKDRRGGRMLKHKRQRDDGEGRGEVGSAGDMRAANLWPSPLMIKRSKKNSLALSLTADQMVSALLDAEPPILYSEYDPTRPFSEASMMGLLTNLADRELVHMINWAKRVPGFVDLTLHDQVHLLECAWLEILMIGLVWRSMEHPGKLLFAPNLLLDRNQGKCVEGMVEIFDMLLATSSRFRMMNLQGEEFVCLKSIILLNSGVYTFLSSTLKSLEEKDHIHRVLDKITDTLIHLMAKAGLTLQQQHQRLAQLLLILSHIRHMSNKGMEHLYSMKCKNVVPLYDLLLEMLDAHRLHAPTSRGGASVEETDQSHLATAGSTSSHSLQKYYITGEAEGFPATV

[22] = tested on: Streptococcus; assay: GAS UMAA2166 growth inhibition – luminescence, BacTiterGlo, counter-screen for streptokinase expression inhibitor project, dose response (AID 1915); type: functional, organism-based;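 further: potency for reduction of bacterial viability or growth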
[23] = biological target: Induced myeloid leukemia cell differentiation protein Mcl-1 (Homo sapiens, UniProt Q07820); type: functional
[24] = biological target: Genome polyprotein (dengue virus type 2, UniProt P29990); assay: flavivirus cap methylation enzyme inhibition – biochemical, confirmation dose response, primary screen (AID 588689); type: functional
Genome polyprotein, sequence (P29990 2492-3391 limits assumed): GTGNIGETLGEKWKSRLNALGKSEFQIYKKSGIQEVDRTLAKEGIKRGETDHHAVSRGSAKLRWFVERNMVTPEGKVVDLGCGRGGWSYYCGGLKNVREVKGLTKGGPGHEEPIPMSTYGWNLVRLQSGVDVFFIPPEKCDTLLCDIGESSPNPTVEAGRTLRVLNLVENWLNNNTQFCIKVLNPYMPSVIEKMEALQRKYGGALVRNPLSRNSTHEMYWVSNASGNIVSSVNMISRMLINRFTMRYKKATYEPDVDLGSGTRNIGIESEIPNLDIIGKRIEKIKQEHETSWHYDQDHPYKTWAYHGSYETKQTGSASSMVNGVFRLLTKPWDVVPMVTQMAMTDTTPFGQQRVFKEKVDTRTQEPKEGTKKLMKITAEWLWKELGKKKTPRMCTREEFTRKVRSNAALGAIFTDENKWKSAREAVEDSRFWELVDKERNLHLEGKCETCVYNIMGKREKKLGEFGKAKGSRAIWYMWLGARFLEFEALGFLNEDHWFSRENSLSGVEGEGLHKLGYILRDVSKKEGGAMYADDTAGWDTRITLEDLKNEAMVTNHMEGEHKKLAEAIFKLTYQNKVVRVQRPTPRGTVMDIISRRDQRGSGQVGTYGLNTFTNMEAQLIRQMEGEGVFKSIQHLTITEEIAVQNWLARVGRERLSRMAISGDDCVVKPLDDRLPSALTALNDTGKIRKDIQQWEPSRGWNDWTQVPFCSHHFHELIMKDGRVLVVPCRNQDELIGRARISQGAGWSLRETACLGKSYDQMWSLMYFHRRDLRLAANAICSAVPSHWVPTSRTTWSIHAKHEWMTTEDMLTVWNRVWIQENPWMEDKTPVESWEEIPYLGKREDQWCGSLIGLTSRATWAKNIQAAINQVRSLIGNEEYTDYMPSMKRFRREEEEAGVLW

Glucose-6-phosphate 1-dehydrogenase, sequence (P11413 whole entry): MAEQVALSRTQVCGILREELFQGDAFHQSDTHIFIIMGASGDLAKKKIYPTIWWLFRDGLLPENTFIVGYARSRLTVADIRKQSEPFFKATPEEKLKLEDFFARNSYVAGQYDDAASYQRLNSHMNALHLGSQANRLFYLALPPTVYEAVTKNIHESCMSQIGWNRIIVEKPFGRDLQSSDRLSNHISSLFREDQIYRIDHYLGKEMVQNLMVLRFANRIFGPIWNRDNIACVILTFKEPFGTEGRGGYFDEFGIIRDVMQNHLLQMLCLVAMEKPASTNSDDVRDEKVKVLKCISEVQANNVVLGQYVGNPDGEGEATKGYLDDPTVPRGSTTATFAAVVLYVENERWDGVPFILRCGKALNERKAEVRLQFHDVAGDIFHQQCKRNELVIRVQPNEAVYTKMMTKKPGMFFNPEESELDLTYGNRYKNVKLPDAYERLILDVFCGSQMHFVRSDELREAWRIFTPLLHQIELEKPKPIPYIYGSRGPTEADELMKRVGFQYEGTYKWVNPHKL
Induced myeloid leukemia cell differentiation protein Mcl-1, sequence (Q07820 whole entry): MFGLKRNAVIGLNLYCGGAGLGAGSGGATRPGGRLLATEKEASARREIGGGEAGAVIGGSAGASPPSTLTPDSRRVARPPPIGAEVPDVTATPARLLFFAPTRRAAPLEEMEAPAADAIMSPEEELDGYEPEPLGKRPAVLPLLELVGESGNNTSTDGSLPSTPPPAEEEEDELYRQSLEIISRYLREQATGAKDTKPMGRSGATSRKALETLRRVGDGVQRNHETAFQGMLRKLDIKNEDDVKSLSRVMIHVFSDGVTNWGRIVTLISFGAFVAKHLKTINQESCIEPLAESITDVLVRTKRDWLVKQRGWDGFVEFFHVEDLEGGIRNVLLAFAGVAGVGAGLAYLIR

Nc1c(C(=O)N2CCCC2)sc2nc3c(cc12)CCCCCC3
CC50 [1]: > 40 µM (active)

O=C1CCC2S/C(=C/Nc3ccc(C(F)(F)F)cc3)C(=O)N12 (stereo not drawn)
EC50 [2]: 2.44 µM (active) | AC50 [3]: 3.57 µM (active) | IC50 [4]: > 80 µM (inactive)

CC#CC[N+](C)(C)CCCCCCCCCCCC
EC50 [5]: > 150 µM (inactive) | CC50 [1]: > 40 µM (active) | EC50 [6]: 2.85 µM (active) | EC50 [7]: 1.05 µM (active) | EC50 [8]: 4.9 µM (active) | EC50 [9]: > 30 µM (not active) | EC50 [10]: 5.82 µM (active) | EC50 [11]: 1.5 µM (active) | EC50 [12]: > 260 µM (inactive) | AC50 [13]: 1.85 µM (active)

Cc1cccc(NC(=O)Cn2c(=O)n(Cc3ccccc3)c(=O)c3c(C)c(C)sc32)c1
CC50 [1]: > 40 µM (active)

CCOC(=O)Cc1csc(NC(=S)NC(=O)c2ccc(C)cc2)n1
IC50 [4]: > 80 µM (inactive)

CC(C)Cn1c([N+](=O)[O-])nc2c1c(=O)[nH]c(=O)n2C
CC50 [14]: 12.4 µM (active) | IC50 [15]: > 80 µM (inactive) | CC50 [16]: 9.18 µM (active) | CC50 [17]: 14.6 µM (active) | IC50 [4]: 47.3 µM (inactive) | IC50 [18]: 5.98 µM (active)

Cc1nn(Cc2ccc(C(=O)Nc3nc4c(C)cccc4s3)o2)c(C)c1Br
EC50 [19]: 4.94 µM (active) | EC50 [20]: 5.58 µM (active) | IC50 [21]: > 50 µM (not active) | EC50 [22]: 8.54 µM (active)

COC(=O)C1=C(C(=O)OC)C(c2cc(Cl)ccc2O)c2sc(O)nc2S1 (stereo not drawn)
IC50 [23]: 4.4 µM (active) | IC50 [24]: > 100 µM (active)
